These results are taken from patent publication US20110190267A1, “PRODRUGS OF OPIOIDS AND USES THEREOF” (priority 2010, published 2011).

For orientation: Cmax means the peak of the concentration-time curve. In general, AUC refers to the area under the concentration-time curve, a measure of exposure. In general, Tmax refers to the time from dosing to the highest level. As usually defined, the t½ is the time needed for the level to fall by half in the phase considered. A word on the bioavailability: it is dose-corrected exposure relative to a reference, in per cent.

Data set [1] is classed as in vitro ADME.
Data set [2] is classed as physicochemical. As to the method: Additionally the potential activation at blood pH of 7.4 was investigated over a similar period. The concentrations of the prodrug & drug were assayed by HPLC.
A short description of data set [3]: Pharmacokinetics of butorphanol or butorphanol PABA carbamate, monkeys (Example 43). Type of data set: in vivo, cynomolgus monkeys.
Experimental: (§1) Blood samples were taken at various times after administration, and submitted to analysis for the parent drug and prodrug using a validated LC-MS-MS assay. Pharmacokinetic parameters derived from the plasma analytical data were determined using Win Nonlin.
Data set [4] can be described thus: Pharmacokinetics of butorphanol or butorphanol PABA carbamate, dogs (Example 44). It counts as in vivo, beagle dogs. Conditions: butorphanol in plasma after oral butorphanol, 0.5 mg butorphanol free base/kg, dog; for half-life: read-out: t½ (converted). As to the method: Test substances, butorphanol or butorphanol_PABA carbamate were orally administered to two male beagle dogs at 0.5 mg butorphanol free base equivalents/kg in a parallel group study design.

For data set [5] the following is noted: Balikova et al. (2001); cited from earlier work.
Data set [6] can be described thus: in vivo. Conditions: dog, read-out: Dog Oral Bioavailability (%).
Experimental: (§2) Blood samples were taken at various times after administration and submitted to analysis for the parent drug and prodrug using a validated LC-MS-MS assay. Pharmacokinetic parameters derived from the plasma analytical data were determined using Win Nonlin.
The nature of data set [7]: in vivo. Conditions: monkey, read-out: Monkey Oral Bioavailability (%).
Experimental: as §2
Data set [8] is described as follows: Pharmacokinetics of racemic tapentadol or tapentadol PABA carbamate, monkeys (Example 39).
Data set [9] is described as follows: Pharmacokinetics of R,R tapentadol or R,R tapentadol PABA carbamate, monkeys (Example 40). Type of data set: in vivo, cynomolgus monkeys. Conditions: R,R tapentadol in plasma after oral R,R tapentadol, 3 mg free base equivalents/kg.
Experimental: as §1
Data set [10] can be described thus: Pharmacokinetics of R,R tapentadol or R,R tapentadol PABA carbamate, dogs (Example 41). Type of data set: in vivo, Beagle dogs. The conditions noted are these: for AUC / Cmax / T>50%Cmax / Tmax / t½: RR-tapentadol in plasma after oral RR-tapentadol, 1 mg free base equivalents/kg, female beagle dogs.
Experimental: as §1
The nature of data set [11]: in vivo. Conditions: male, rat, plasma, po, 10 mg naloxone free base equivalents/kg, naloxone in plasma after oral naloxone, 10 mg free base equivalents/kg, male rats; for half-life: t½.
Experimental: Blood samples were taken at various times after administration and submitted to analysis for the parent drug and pro-drug using a validated LC-MS-MS assay. Pharmacokinetic parameters derived from the plasma analytical data were determined using Win Nonlin.
The mark [12] stands for this setting: simulated intestinal fluid pH 6.8, 37 C.
Setting [13] is: naloxone in plasma after oral naloxone, 10 mg free base equivalents/kg, male rats, single animal.

Where “and” joins values, the source holds several entries; their conditions need not be identical. Identical values can stand only once. Counter-ions that a name gives are not always drawn. Like-named read-outs stand apart in the source and are kept apart here. Marks after values point to notes of the source that are not given here. Where only a bound is given, the exact number is not on record here.

Regarding `CCC1(c2cccc(OC(=O)NC(C(=O)O)C(C)C)c2)CCCCN(C)C1` [Meptazinol (R)-valine carbamate], the “Biological/chemical stability - SIF - pH 6.8, 37 C. % prodrug remaining at 2 h” value in [1] (setting [12]) is reported as 74%. In addition, in data set [2] (pH 7.4, 37° C, 2 h), the “Chemical Stability - pH 7.4, 37° C. % prodrug remaining at 2 h” value is 96%.
With `CCC1(c2cccc(OC(=O)N[C@H](C(=O)O)C(C)C)c2)CCCCN(C)C1` (stereo partly shown) [Meptazinol-valine carbamate], the “Chemical stability at pH 7.4” value in data set [2] (pH 7.4) is listed as about 100%.
For `Oc1ccc2c(c1)[C@@]13CCCC[C@@]1(O)[C@@H](C2)N(CC1CCC1)CC3` [butorphanol], the peak concentration (Cmax) in data set [3] (butorphanol in plasma after oral butorphanol, 1.0 mg butorphanol free base/kg, monkey, single animal, below the LLOQ of 0.1 ng/mL) is <0.1* ng/mL; in data set [3] (male, cynomolgus monkey, plasma, po, 1 mg butorphanol free base equivalents/kg, butorphanol in plasma after oral butorphanol, 1.0 mg butorphanol free base/kg, Average, plasma concentrations below the LLOQ of 0.1 ng/mL, read-out: Cmax) it was 0.1 ng/mL; in data set [3] (male, cynomolgus monkey, plasma, po, 1 mg butorphanol free base equivalents/kg, butorphanol in plasma after oral butorphanol, 1.0 mg butorphanol free base/kg, single animal, below the LLOQ of 0.1 ng/mL, read-out: Cmax) it was under 0.1 ng/mL; in data set [4] (single animal), 0.56 ng/mL; in data set [4] (male, beagle, plasma, po, 0.5 mg/kg, Average, read-out: Cmax), 0.73 ng/mL; in [4] (male, beagle, plasma, po, 0.5 mg/kg, single animal, read-out: Cmax), 0.9 ng/mL. In addition, the AUC in [3] (male, cynomolgus monkey, 1 mg butorphanol free base equivalents/kg, butorphanol in plasma after oral butorphanol, 1.0 mg butorphanol free base/kg, Average, estimate of maximal systemic exposure) was 0.62 ng·h/mL; in [4] (single animal), 1.80 ng·h/mL; in data set [4] (male, beagle, plasma, po, 0.5 mg/kg, Average, read-out: AUC) it was 2.05 ng·h/mL; in [4] (male, beagle, plasma, po, 0.5 mg/kg, single animal, read-out: AUC), 2.3 ng·h/mL. The Tmax came out at 0.5 h in [3] (male, cynomolgus monkey, 1 mg butorphanol free base equivalents/kg, butorphanol in plasma after oral butorphanol, 1.0 mg butorphanol free base/kg, Average, plasma concentrations below the LLOQ of 0.1 ng/mL); 1.00 h in data set [4] (single animal); 0.75 h in data set [4] (male, beagle, plasma, po, 0.5 mg/kg, Average, read-out: Tmax); 0.5 h in [4] (male, beagle, plasma, po, 0.5 mg/kg, single animal, read-out: Tmax). Moreover, the half-life in [3] (male, cynomolgus monkey, plasma, 1 mg butorphanol free base equivalents/kg, butorphanol, oral butorphanol 1.0 mg free base/kg, Average, value after giving prodrug and used for estimating maximal systemic exposure, read-out: t½ (converted)) is 6.1 h; in [4] (male, beagle, plasma, po, 0.5 mg/kg, Average), 1.6 h; in [4] (male, beagle, plasma, po, 0.5 mg/kg, single animal) it was 1.6 h. Besides, the “T>50%Cmax” value is 2.0 h in data set [4] (Average); 1.6 h and 2.4 h in data set [4] (single animal). In data set [4] (single animal), the t½ is on record as 1.7 h.
`COc1ccc2c3c1O[C@H]1[C@@H](O)CC[C@H]4[C@@H](C2)N(C)CC[C@@]341` [dihydrocodeine]: the “oral dose converted to dihydromorphine” value in data set [5] is listed as “less than 2%”.
On to `CCC1(c2cccc(OC(=O)NC(C(=O)O)C(C)C)c2)CCCCN(C)C1` [Meptazinol (S) valine carbamate], for which the “Biological/chemical stability - SIF - pH 6.8, 37 C. % prodrug remaining at 2 h” value in [1] (setting [12]) is listed as 99%. Moreover, the “Chemical Stability, % prodrug remaining at 2 h, pH 10.0” value in data set [2] (pH 10.0, 37° C, 2 h) is recorded as 66% pH 10.0.
With `CCC1(c2cccc(O)c2)CCCCN(C)C1` (stereo not shown) [Meptazinol HCl (oral), Meptazinol HCl], the bioavailability was determined as 6 ± 2.1% in the data set “in vivo [6]” and 1.8 ± 0.2% in the data set “in vivo [7]”.
`CC[C@@H](c1cccc(O)c1)[C@@H](C)CN(C)C` [tapentadol] had a half-life in [8] (cynomolgus monkey, plasma, po, 3 mg/kg) of 1.2 h. For the same compound, the exposure (AUC) was 5.4 ng·h/mL in [8] (male, cynomolgus monkey, plasma, po, 1 mg free base equivalents/kg) and under 5.4 ng·h/mL in data set [8] (male, cynomolgus monkey, plasma, po, 1 mg/kg tapentadol free base equivalents/kg). Moreover, in data set [8] (male, cynomolgus monkey, plasma, po, 1 mg free base equivalents/kg, Cmax * (estimated), racemic tapentadol (all four isomers), oral tapentadol scaled up from 1 to 3 mg free base equivalents/kg, monkeys, n = 5, LLOQ taken as Cmax), the Cmax is 2.4 ng/mL. Moreover, the “plasma concentrations of tapentadol, each isomer (LLOQ)” value in data set [8] (oral tapentadol 1 mg/kg, monkeys) is under 0.4 ng/mL. In addition, in data set [8] (racemic tapentadol (all four isomers), oral tapentadol scaled up from 1 to 3 mg free base equivalents/kg, monkeys, n = 5, LLOQ taken as Cmax), the “Cmax * (estimated)” value is recorded as under 2.4 ng/mL.
On to `CC[C@@H](c1cccc(O)c1)[C@@H](C)CN(C)C` [R,R tapentadol], for which, in data set [9] (Mean), the AUC amounted to 7.6 ng·h/mL, the Cmax is listed as 2.2 ng/mL, the “T>50%Cmax” value is 2.8 h and the time of peak concentration (Tmax) amounted to 1.1 h. In [9] (Mean), the t½ was found to be 1.6 h. Moreover, in [9] (single animal), the exposure (AUC) is 10 ng·h/mL and 8.6 ng·h/mL and 7.7 ng·h/mL and 4.0 ng·h/mL; the Cmax was 2.9 ng/mL and 2.6 ng/mL and 2.1 ng/mL and 1.1 ng/mL; the “T>50%Cmax” value was 2.8 h (2×) and 2.7 h and 2.9 h; the Tmax is 0.5 h and 1.0 h (2×) and 2.0 h. In data set [9] (single animal), the t½ was 1.5 h (2×) and 1.7 h and 1.6 h. In data set [10] (Mean), the exposure (AUC) was found to be 4.16 ng·h/mL, the Cmax is given as 3.21 ng/mL, the “T>50%Cmax” value amounted to 0.7 h and the time to peak (Tmax) is 0.44 h. Also, the t½ in data set [10] (Mean) is recorded as 0.6 h. For the same compound, in data set [10] (single animal), the exposure (AUC) is 1.74 ng·h/mL and 8.35 ng·h/mL and 2.38 ng·h/mL; the Cmax is 1.25 ng/mL and 8.48 ng/mL and 0.39 ng/mL and 2.71 ng/mL; the “T>50%Cmax” value was 1.0 h and 0.6 h (2×); the Tmax is 0.50 h (3×) and 0.25 h. The t½ in data set [10] (single animal) is 0.7 h and 0.6 h and 0.5 h. For the same compound, the “T50% Cmax of R,R tapentadol” value in data set [10] (dogs, oral 1 mg R,R tapentadol free base equivalents/kg) amounted to 0.7 h.
Turning to `CCC(C)C(NC(=O)Oc1cccc(C2(CC)CCCCN(C)C2)c1)C(=O)O` (stereo not shown) [Meptazinol isoleucine carbamate], the “Biological/chemical stability - SIF - pH 6.8, 37 C. % prodrug remaining at 2 h” value in [1] (setting [12]) is 99%. Also, in [2] (pH 10.0, 37° C, 2 h), the “Chemical Stability, % prodrug remaining at 2 h, pH 10.0” value worked out at 73% pH 10.0.
As for `C=CCN1CC[C@]23c4c5ccc(O)c4O[C@H]2C(=O)CC[C@@]3(O)[C@H]1C5` [naloxone], the “T>50%Cmax” value (naloxone in plasma after oral naloxone, 10 mg free base equivalents/kg, male rats, Mean) came to 2.1 h. Under setting [13], the peak concentration (Cmax) is 6.3 ng/mL and 7.6 ng/mL and 8.1 ng/mL and 4.9 ng/mL; the “T>50%Cmax” value is 1.2 h and 1.5 h and 1.8 h and 1.3 h and 4.5 h; the Tmax worked out at 0.50 h; the t½ was found to be 3.8 h. For the same compound, the “variability around bioavailability of naloxone” value (rats, oral 10 mg/kg) is on record as “over 10%”. In addition, in the data set “in vivo [11]” (Mean), the AUC was 22 ng·h/mL, the Cmax worked out at 6.8 ng/mL, the Tmax amounted to 0.35 h and the half-life was 3.9 h. In “in vivo [11]” (single animal), the area under the curve (AUC) stood at 22 ng·h/mL, the maximum concentration (Cmax) amounted to 7.1 ng/mL, the Tmax worked out at 0.25 h and the half-life is 3.9 h.
Consider `CCC1(c2cccc(OC(=O)NC(CCSC)C(=O)O)c2)CCCCN(C)C1` (stereo not shown) [Meptazinol methionine carbamate], for which the “Biological/chemical stability - SIF - pH 6.8, 37 C. % prodrug remaining at 2 h” value in data set [1] (simulated gi fluid, pH 6.8) is given as 100%. In addition, in data set [2] (buffer, 2 h, pH 10), the “Chemical Stability, % prodrug remaining at 2 h, pH 10.0” value worked out at 60% pH 10.0.
